Assay results published in paper PMC8448163 (Antimicrobial Agents and Chemotherapy, 2021).
“And” between values parts separate entries of the source, which are not always exact repeats. Equal values may be shown once. Read-outs that look alike come from different tables or passages of the source.

Experiments:
clinical [1] = details: human, in vivo
healthy adult volunteers [2] = experiment: Phase 1 MAD study, safety and tolerability
[3] = healthy adult males (n = 14), single oral doses 200 mg to 2,000 mg; cited from earlier work
CV-A16 = experiment: microbe, parasite or virus in culture; type: cell-based; details: Enterovirus A, CVA16
[4] = in vitro
in vivo [5] = details: rat, po
in vivo [6] = details: dog, po
clinical [7] = details: human, in vivo; remark: listed apart in the source
[8] = for mean and individual trough concentrations: LLOQ 1.00 ng/ml; for time of peak of mean plasma concentration: MAD BID
healthy adult volunteers [9] = experiment: Phase 1 SAD study, safety and tolerability
poliovirus = details: in vitro, in combination with capsid inhibitors including pocapavir; cited from earlier work
ECV-11 isolates = experiment: organism not typed; type: cell-based; details: read-out: EC50, range
[10] = test system: EV panel comprising 47 PV strains and 36 nonpolio EV strains; experiment: microbe, parasite or virus in culture; type: cell-based; details: Enterovirus, read-out: EC50, mean
[11] = MAD, one participant, 2,000 mg BID cohort, day 7, normal two days later
[12] = SAD, 10-fold increase in dose from 200 mg to 2,000 mg

## C#CC[C@@H](C(=O)N[C@H](/C=C/C(=O)OCC)C[C@@H]1CCNC1=O)n1cccc(NC(=O)c2cc(C)on2)c1=O [V-7404]
Clinical [1]
  Tmax: 15 to 30 min
Clinical [1]; Vz/F
  Vd/F: 3780 L
Clinical [1]; po, 500 mg, AUC (AUC0–tau)
  AUC: 302 ng·h/mL
Clinical [1]; po, 500 mg, Cmax
  Cmax: 247 ng/mL
  Cmax at 14 days: 370 ng/mL
Clinical [1]; po, 500 mg, Vz/F
  Vd/F at 14 days: 3020 L
Clinical [1]; po, 500 mg, tmax
  Tmax: 28.8 min
  Tmax at 14 days: 15 min
Clinical [1]; t1/2
  half-life: 79.2 min
Clinical [1]; tmax(0–4 h)
  Tmax: 30 min
Clinical [1]; tmax(4–24 h)
  Tmax: 45 min
Healthy adult volunteers [2]; MAD study
  deaths or SAEs: No deaths or SAEs were reported
Healthy adult volunteers [2]; MAD, 1,000 mg QD
  proportion of related TEAEs: 12.5%
Healthy adult volunteers [2]; MAD, 2,000 mg BID
  proportion of related TEAEs: 75%
Healthy adult volunteers [2]; MAD, 2,000 mg BID cohort, 1/41 participants
  participants with increased lipase levels (asymptomatic) leading to discontinuation: 2.4%
Healthy adult volunteers [2]; MAD, 2,000 mg QD
  proportion of related TEAEs: 22.2%
Healthy adult volunteers [2]; MAD, V-7404 group, 2/33 participants
  participants with moderate TEAEs: 6.1%
Healthy adult volunteers [2]; MAD, V-7404 group, 10/33 participants
  participants with mild TEAEs: 30.3%
Healthy adult volunteers [2]; [11]
  amylase: 2.7 × ULN
  lipase: 4.5 × ULN
[3]
  tolerability: well tolerated with no serious adverse events (SAEs)
CV-A16
  EC50: 5.99 µM
[4]
  genotoxicity study results: negative
In vivo [5]
  NOAEL: 1500 mg/kg/day
In vivo [6]
  NOAEL: 1500 mg/kg/day
Clinical [7]
  Tmax: 15 to 37.8 min
Clinical [7]; po, 200 mg, AUC (AUC0–inf)
  AUC(0-inf): 77.4 ng·h/mL
Clinical [7]; po, 200 mg, Cmax
  Cmax: 83.3 ng/mL
Clinical [7]; po, 200 mg, Vz/F
  Vd/F: 1170 L
Clinical [7]; po, 200 mg, t1/2
  half-life: 18.9 min
Clinical [7]; po, 200 mg, tmax
  Tmax: 30 min
Clinical [7]; t1/2, range across cohorts
  half-life: 19.2 to 140 min
[8]; MAD 500 mg QD, days 2, 3, 7, 11 and 14
  mean and individual trough concentrations: BLQ
[8]; MAD 1,000 mg QD, days 2, 3, 7, 11 and 14
  mean and individual trough concentrations: BLQ
[8]; MAD 2,000 mg BID, day 14
  accumulation (RAUC and RCmax): no accumulation
[8]; MAD 2,000 mg BID, days 2, 3, 7, 11 and 14
  mean trough concentrations: either BLQ or were less than twice the LLOQ of 1.00 ng/ml
[8]; following the first dose of the day
  time of peak of mean plasma concentration: 0.50 h
[8]; following the second dose of the day, day 1
  time of peak of mean plasma concentration: 0.75 h
[8]; following the second dose of the day, day 14
  time of peak of mean plasma concentration: 0.50 h
[8]; MAD QD, day 14, all dose levels
  RAUC and RCmax, all ratios: less than 1.5
[8]; MAD, 2,000 mg QD
  mean trough concentrations: either BLQ or were less than twice the lower limit of quantification (LLOQ) of 1.00 ng/ml
[8]; human, in vivo
  CL/F: 1,987 liters/h
  CLss/F: 2125 L/h
  Vz/F: 6542 L
  t1/2: 136.2 min
[8]; human, in vivo, po, 500 mg
  CL/F: 2,076 liters/h
  CL/F (CLss/F): 1,656 liters/h
Healthy adult volunteers [9]; SAD study
  deaths or SAEs: No deaths or SAEs were reported
Healthy adult volunteers [9]; SAD, V-7404 group, 1/24 participants
  participants with moderate TEAEs: 4.2%
Healthy adult volunteers [9]; SAD, V-7404 group, 4/24 participants
  participants with mild treatment-emergent AEs (TEAEs): 16.7%
Healthy adult volunteers [9]; SAD, one participant, 1,000 mg cohort, day 2, asymptomatic, normal 3 days later
  elevated lipase: 4.0 × the upper limit of normal (U
poliovirus
  activity in combination with antiviral capsid inhibitors: synergistic activity
ECV-11 isolates
  EC50: 0.032 to 0.352 µM
[10]
  EC50: 379 nM and 0.198 µg/mL
SAD 500 mg
  geometric mean AUC0–inf lower for fed compared to fasted: 50%
  geometric mean Cmax lower for fed compared to fasted: 66%
[12]
  increase of geometric mean AUC0–inf: 14.2 fold
  increase of geometric mean Cmax: 7.6 fold
human, in vivo
  time of peak of mean plasma concentrations: 0.25 to 0.75 h
human, in vivo, po, 500 mg
  Cmax: 366.6 ng/mL
